The target of one data set is T1, human GLP2 receptor (Homo sapiens, UniProt O95838).
T1 construct: expressed in transfected cells; host or cells: HEK cells, BacMam virus transduction
T1 sequence (O95838 1-553): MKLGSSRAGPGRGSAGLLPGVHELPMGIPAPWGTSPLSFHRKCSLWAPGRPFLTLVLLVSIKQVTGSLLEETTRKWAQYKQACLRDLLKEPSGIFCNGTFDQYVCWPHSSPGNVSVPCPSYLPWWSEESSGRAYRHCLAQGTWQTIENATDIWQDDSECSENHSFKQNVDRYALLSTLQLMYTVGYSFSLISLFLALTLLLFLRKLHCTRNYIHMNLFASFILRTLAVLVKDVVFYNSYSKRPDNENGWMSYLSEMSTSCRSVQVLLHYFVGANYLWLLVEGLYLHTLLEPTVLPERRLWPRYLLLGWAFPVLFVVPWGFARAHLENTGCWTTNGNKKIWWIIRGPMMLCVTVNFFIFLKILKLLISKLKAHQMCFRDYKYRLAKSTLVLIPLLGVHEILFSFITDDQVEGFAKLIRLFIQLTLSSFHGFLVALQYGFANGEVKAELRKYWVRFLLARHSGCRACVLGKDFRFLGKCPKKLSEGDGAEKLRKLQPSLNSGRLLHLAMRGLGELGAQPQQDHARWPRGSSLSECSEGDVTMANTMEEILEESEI
Put plainly: cAMP accumulation assay, functional agonism of human GLP2 receptor. The format is cell-based. The conditions noted are these: HEK cells infected with human GLP2 receptor BacMam virus, HTRF cAMP; for Emax: HEK293, read-out: Human GLP-2R agonist cAMP Emax; for EC50: read-out: Human GLP-2R agonist cAMP pEC50 (converted). The procedure, abridged:
(§1)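 Frozen HEK cells, previously BacMam-infected 24 h to express either receptor, are stimulated for 45 min at 37° C in IBMX-containing (0.5 mM) HBSS. The reaction is then terminated with HTRF reagents in lysis buffer.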
(In general: Cyclic AMP is a second messenger, typically raised through Gs and lowered through Gi signalling.)

The target of another data set is T2, human GLP1 receptor (Homo sapiens, UniProt P43220).
T2 construct: expressed in transfected cells; host or cells: HEK cells, BacMam virus transduction
Put plainly: cAMP accumulation assay, functional agonism of human GLP1 receptor. The format is cell-based. The conditions noted are these: HEK cells infected with human GLP1 receptor BacMam virus, HTRF cAMP; for Emax: HEK293, read-out: Human GLP-1R agonist cAMP Emax; for EC50: read-out: Human GLP-1R agonist cAMP pEC50 (converted). The method in brief: as §1

The nature of data set [1]: Stability of peptides in Fasted-State Simulated Intestinal Fluid (FaSSIF). The conditions noted are these: FaSSIF with 10 mg/ml pancreatin; t=30 mins, 37° C., pH 6.5, 10 mg/ml pancreatin. The format is in vitro ADME.

Positions of bridges follow the written chain, without caps; N, C: chain ends. Non-standard residues stand in square brackets, D forms with d. Residues, ends and D or L forms follow the SMILES beside them. *: point of attachment. Malonyl(2,2-Me2,histaminyl) = CC(C)(C(=O)NCCc1cnc[nH]1)C(=O)*; Ala(1H-tetrazol-5-yl) = N[C@@H](Cc1nnn[nH]1)C(=O)O; αMePhe(2-F) = C[C@](N)(Cc1ccccc1F)C(=O)O; αMeL = CC(C)C[C@](C)(N)C(=O)O; Nle = CCCC[C@H](N)C(=O)O; Aib = CC(C)(N)C(=O)O

T2 sequence (P43220 24-463): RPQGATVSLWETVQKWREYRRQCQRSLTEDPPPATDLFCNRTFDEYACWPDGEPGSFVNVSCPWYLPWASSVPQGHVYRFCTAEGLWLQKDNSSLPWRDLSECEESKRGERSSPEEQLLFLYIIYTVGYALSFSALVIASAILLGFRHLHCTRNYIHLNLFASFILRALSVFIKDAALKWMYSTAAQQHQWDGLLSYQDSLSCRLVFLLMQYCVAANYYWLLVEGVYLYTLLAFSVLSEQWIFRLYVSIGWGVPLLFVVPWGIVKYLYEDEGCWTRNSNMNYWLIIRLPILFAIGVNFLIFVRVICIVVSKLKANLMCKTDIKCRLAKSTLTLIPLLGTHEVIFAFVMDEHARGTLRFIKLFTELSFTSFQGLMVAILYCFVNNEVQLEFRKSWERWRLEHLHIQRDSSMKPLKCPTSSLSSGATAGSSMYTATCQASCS

With `CCCC[C@@H]1NC(=O)[C@H](CCC(=O)O)NC(=O)[C@@H](NC(=O)[C@H](CO)NC(=O)[C@H](Cc2ccccc2)NC(=O)[C@H](CO)NC(=O)CNC(=O)[C@H](Cc2nn[nH]n2)NC(=O)C(C)(C)C(=O)NCCc2c[nH]cn2)CCCCNC(=O)C[C@@H](C(=O)N[C@@](C)(CC(C)C)C(=O)N[C@@H](CC(C)C)C(=O)N[C@@H](CC(=O)O)C(=O)N[C@H]2CCC(=O)NCCCC[C@@H](C(=O)N[C@@H](CC(=O)O)C(=O)N[C@@H](Cc3ccccc3)C(=O)N[C@H](C(=O)N[C@@H](CC(N)=O)C(=O)N[C@@H](Cc3c[nH]c4ccccc34)C(=O)N[C@@H](CC(C)C)C(=O)N[C@H](C(=O)N[C@@H](CCC(N)=O)C(=O)N[C@H](C(=O)N[C@H]3CCC(=O)NCCCC[C@@H](C(N)=O)NC(=O)[C@H]([C@@H](C)O)NC(=O)[C@H]([C@@H](C)CC)NC3=O)[C@@H](C)O)[C@@H](C)CC)[C@@H](C)CC)NC(=O)[C@H](C)NC(=O)[C@H](C)NC(=O)[C@H](CCCCN)NC2=O)NC(=O)[C@@H](Cc2ccccc2)NC1=O` [Example 11] ({Malonyl(2,2-Me2,histaminyl)}-[Ala(1H-tetrazol-5-yl)]GSFSKE[Nle][dF]D[αMeL]LDEKAAKDFINWLIQTEITK-NH2; lactam 6-10, 14-18, 28-31 (inferred); C-terminus assumed), the Emax amounted to 105% at human GLP2 receptor and 95.3% at human GLP1 receptor. Moreover, the figures for the EC50 at human GLP2 receptor and at human GLP1 receptor were 0.0794 nM and 0.251 nM, respectively. Moreover, the amount remaining at 0.5 h in data set [1] is 22.3%.
For `CCCC[C@@H]1NC(=O)[C@H](CCC(=O)O)NC(=O)[C@@H](NC(=O)[C@H](CO)NC(=O)[C@H](Cc2ccccc2)NC(=O)[C@H](CO)NC(=O)CNC(=O)[C@H](Cc2nn[nH]n2)NC(=O)C(C)(C)C(=O)NCCc2c[nH]cn2)CCCCNC(=O)C[C@@H](C(=O)N[C@H](C(=O)N[C@@H](CC(C)C)C(=O)N[C@@H](CC(=O)O)C(=O)N[C@H]2CCC(=O)NCCCC[C@@H](C(=O)N[C@@H](CC(=O)O)C(=O)N[C@@H](Cc3ccccc3)C(=O)N[C@H](C(=O)N[C@@H](CC(N)=O)C(=O)N[C@@H](Cc3c[nH]c4ccccc34)C(=O)N[C@@H](CC(C)C)C(=O)N[C@H](C(=O)N[C@@H](CCC(N)=O)C(=O)N[C@H](C(=O)N[C@H]3CCC(=O)NCCCC[C@@H](C(N)=O)NC(=O)[C@H]([C@@H](C)O)NC(=O)[C@H]([C@@H](C)CC)NC3=O)[C@@H](C)O)[C@@H](C)CC)[C@@H](C)CC)NC(=O)[C@H](C)NC(=O)C(C)(C)NC(=O)[C@H](CCCCN)NC2=O)[C@@H](C)CC)NC(=O)[C@@H](Cc2ccccc2)NC1=O` [Example 12] ({Malonyl(2,2-Me2,histaminyl)}-[Ala(1H-tetrazol-5-yl)]GSFSKE[Nle][dF]DILDEK[Aib]AKDFINWLIQTEITK-NH2; lactam 6-10, 14-18, 28-31; C-terminus assumed) the same measures were 105%, 94.5%, 0.0501 nM, 0.251 nM and 10.7%.
With `CCCC[C@@H]1NC(=O)[C@H](CCC(=O)O)NC(=O)[C@@H](NC(=O)[C@H](CO)NC(=O)[C@H](Cc2ccccc2)NC(=O)[C@H](CO)NC(=O)CNC(=O)[C@H](Cc2nn[nH]n2)NC(=O)C(C)(C)C(=O)NCCc2c[nH]cn2)CCCCNC(=O)C[C@@H](C(=O)N[C@H](C(=O)N[C@@H](CC(C)C)C(=O)N[C@@H](CC(=O)O)C(=O)N[C@H]2CCC(=O)NCCCC[C@@H](C(=O)N[C@@H](CC(=O)O)C(=O)N[C@@H](Cc3ccccc3)C(=O)N[C@H](C(=O)N[C@@H](CC(N)=O)C(=O)N[C@@H](Cc3c[nH]c4ccccc34)C(=O)N[C@@H](CC(C)C)C(=O)N[C@H](C(=O)N[C@@H](CCC(N)=O)C(=O)N[C@H](C(=O)N[C@H]3CCC(=O)NCCCC[C@@H](C(=O)N4CCC[C@H]4C(N)=O)NC(=O)[C@H]([C@@H](C)O)NC(=O)[C@H]([C@@H](C)CC)NC3=O)[C@@H](C)O)[C@@H](C)CC)[C@@H](C)CC)NC(=O)[C@H](C)NC(=O)[C@H](C)NC(=O)[C@H](CCCCN)NC2=O)[C@@H](C)CC)NC(=O)[C@@H](Cc2ccccc2)NC1=O` [Example 13] ({Malonyl(2,2-Me2,histaminyl)}-[Ala(1H-tetrazol-5-yl)]GSFSKE[Nle][dF]DILDEKAAKDFINWLIQTEITKP-NH2; lactam 6-10, 14-18, 28-31 (inferred); C-terminus assumed), the maximal effect (Emax) came out at 104% on human GLP2 receptor and 92.5% at human GLP1 receptor. Besides, the EC50 is 0.0316 nM on human GLP2 receptor and 0.251 nM on human GLP1 receptor. Also, the share remaining at 0.5 h in data set [1] was 3.8%.
For `CCCC[C@H](NC(=O)[C@H](CCC(=O)O)NC(=O)[C@@H]1CC(=O)NCCCC[C@H](NC(=O)[C@H](Cc2nn[nH]n2)NC(=O)C(C)(C)C(=O)NCCc2c[nH]cn2)C(=O)N[C@@H](CO)C(=O)N[C@@H](Cc2ccccc2)C(=O)N[C@@H](CO)C(=O)N1)C(=O)N[C@H](Cc1ccccc1)C(=O)N[C@H](C(=O)N[C@@](C)(CC(C)C)C(=O)N[C@@H](CC(C)C)C(=O)N[C@@H](CC(=O)O)C(=O)N[C@H]1CCC(=O)NCCCC[C@@H](C(=O)N[C@@H](CC(=O)O)C(=O)N[C@@H](Cc2ccccc2)C(=O)N[C@H](C(=O)N[C@H]2CCC(=O)NCCCC[C@@H](C(=O)N[C@H](C(=O)N[C@@H](CCCCN)C(N)=O)[C@@H](C)O)NC(=O)[C@H]([C@@H](C)CC)NC(=O)[C@H](CC(C)C)NC(=O)[C@H](Cc3c[nH]c4ccccc34)NC2=O)[C@@H](C)CC)NC(=O)[C@H](C)NC(=O)[C@H](C)NC(=O)[C@H](CCCCN)NC1=O)[C@@H](C)O` [Example 17] ({Malonyl(2,2-Me2,histaminyl)}-[Ala(1H-tetrazol-5-yl)]KSFSDE[Nle][dF]T[αMeL]LDEKAAKDFIEWLIKTK-NH2; lactam 2-6, 14-18, 22-26; C-terminus assumed), at human GLP2 receptor, the maximal effect (Emax) came out at 104% and the EC50 was 0.0398 nM. Also, at human GLP1 receptor, the Emax came out at 96.3% and the EC50 was 0.158 nM. Besides, in data set [1], the fraction remaining at 0.5 h was 68.7%.
For the molecule `CCCC[C@@H]1NC(=O)[C@H](CCC(=O)O)NC(=O)[C@@H](NC(=O)[C@H](CO)NC(=O)[C@](C)(Cc2ccccc2F)NC(=O)[C@H](CO)NC(=O)CNC(=O)[C@H](CC(=O)O)NC(=O)C(C)(C)NC(=O)[C@@H](N)Cc2c[nH]cn2)CCCCNC(=O)C[C@@H](C(=O)N[C@H](C(=O)N[C@@H](CC(C)C)C(=O)N[C@@H](CC(=O)O)C(=O)N[C@H]2CCC(=O)NCCCC[C@@H](C(=O)N[C@@H](CC(=O)O)C(=O)N[C@@H](Cc3ccccc3)C(=O)N[C@H](C(=O)N[C@@H](CC(N)=O)C(=O)N[C@@H](Cc3c[nH]c4ccccc34)C(=O)N[C@@H](CC(C)C)C(=O)N[C@H](C(=O)N[C@@H](CCC(N)=O)C(=O)N[C@H]3CCC(=O)NCCCC[C@@H](C(N)=O)NC(=O)[C@H]([C@@H](C)O)NC(=O)[C@H]([C@@H](C)CC)NC(=O)[C@H](CCCCN)NC3=O)[C@@H](C)CC)[C@@H](C)CC)NC(=O)[C@H](C)NC(=O)[C@H](C)NC(=O)[C@H](CCCCN)NC2=O)[C@@H](C)CC)NC(=O)[C@@H](Cc2ccccc2)NC1=O` [Example 18] (H-H[Aib]DGS[αMePhe(2-F)]SKE[Nle][dF]DILDEKAAKDFINWLIQEKITK-NH2; lactam 8-12, 16-20, 29-33; C-terminus assumed), the maximal effect (Emax) at human GLP2 receptor is 104%; on human GLP1 receptor, 97.8%. In addition, the EC50 was 0.0158 nM at human GLP2 receptor and 0.1 nM on human GLP1 receptor. In data set [1], the amount remaining at 0.5 h is 17.3%.
For `CCCC[C@H](NC(=O)[C@H](CCC(=O)O)NC(=O)[C@@H]1CC(=O)NCCCC[C@H](NC(=O)[C@H](CC(=O)O)NC(=O)C(C)(C)NC(=O)[C@@H](N)Cc2c[nH]cn2)C(=O)N[C@@H](CO)C(=O)N[C@@H](Cc2ccccc2)C(=O)N[C@@H](CO)C(=O)N1)C(=O)N[C@H](Cc1ccccc1)C(=O)N[C@H](C(=O)N[C@@](C)(CC(C)C)C(=O)N[C@@H](CC(C)C)C(=O)N[C@@H](CC(=O)O)C(=O)N[C@H]1CCC(=O)NCCCC[C@@H](C(=O)N[C@@H](CC(=O)O)C(=O)N[C@@H](Cc2ccccc2)C(=O)N[C@H](C(=O)N[C@H]2CCC(=O)NCCCC[C@@H](C(=O)N[C@H](C(=O)N[C@@H](CCCCN)C(N)=O)[C@@H](C)O)NC(=O)[C@H]([C@@H](C)CC)NC(=O)[C@H](CC(C)C)NC(=O)[C@H](Cc3c[nH]c4ccccc34)NC2=O)[C@@H](C)CC)NC(=O)[C@H](C)NC(=O)[C@H](C)NC(=O)[C@H](CCCCN)NC1=O)[C@@H](C)O` [Example 21] (H-H[Aib]DKSFSDE[Nle][dF]T[αMeL]LDEKAAKDFIEWLIKTK-NH2; lactam 4-8, 16-20, 24-28; N-terminus and C-terminus assumed), the results for the Emax on human GLP2 receptor and on human GLP1 receptor were 104% and 96.6%, respectively. Moreover, the amount remaining at 0.5 h in data set [1] is 51.7%.

One may read the Emax as the maximal effect, on the per cent scale that the assay sets. Usually fraction remaining stands for the share of the starting amount still present when the sample was taken.

Source of the values: patent publication US20240270809A1, “ORAL GLP RECEPTOR AGONISTS” (priority 2020, published 2024).
